Measurements as given in patent publication US6649763B1, “Optically active quinoline carboxylic acid derivatives with 7-pyrrolidine substituents causing optical activity and a process for the preparation thereof” (Dong Wha Pharm. Ind. Co., Ltd., priority 1999, dated 2003).
≈ marks a conversion by molar mass, not a printed value.

How the values were obtained:
[1] = tested on: Staphylococcus aureus 88E; experiment: Antibacterial activity in vitro (MIC, agar dilution); type: cell-based; conditions: resistant strain Staphylococcus aureus 88E, read-out: minimum inhibitory concentration (MIC)
Description: (§1) The optically active quinoline carboxylic acid derivatives of the present invention were tested as to whether they could be useful as antibacterial compounds. In this regard, the compounds were measured for minimum inhibitory concentration (MIC: unit μg/ml) according to an agar dilution process (Hoechst 345) in which Muller-Hinton agars were diluted two fold. For comparison, ciprofloxacin and sparfloxacin were used as controls. Corresponding enantiomers and racemates of the compounds of interest were also used as comparative ones. Bacteria were inoculated at an amount of about 10^7 cfu/ml onto each agar. 18 hours after the inoculation at 37° C., the growth of the bacteria was observed. As to methicillin-resistant strains, their growth was observed 48 hours after the inoculation at […]. Hoechst standard strains were used as the test bacteria.

[2] = tested on: Staphylococcus aureus 692E; experiment: as above; type: cell-based; conditions: resistant strain Staphylococcus aureus 692E, read-out: minimum inhibitory concentration (MIC)
Description: as §1

[3] = tested on: Staphylococcus aureus 690E; experiment: as above; type: cell-based; conditions: resistant strain Staphylococcus aureus 690E, read-out: minimum inhibitory concentration (MIC)
Description: as §1

[4] = tested on: Staphylococcus aureus 503; experiment: as above; type: cell-based; conditions: standard strain Staphylococcus aureus 503, read-out: minimum inhibitory concentration (MIC)
Description: as §1

[5] = tested on: Staphylococcus aureus SG511; experiment: as above; type: cell-based; conditions: standard strain Staphylococcus aureus SG511, read-out: minimum inhibitory concentration (MIC)
Description: as §1

[6] = tested on: Escherichia coli DC 2; experiment: as above; type: cell-based; conditions: DC2, standard strain Escherichia coli DC 2, read-out: minimum inhibitory concentration (MIC)
Description: as §1

[7] = tested on: Escherichia coli DC 0; experiment: as above; type: cell-based; conditions: DC0, standard strain Escherichia coli DC 0, read-out: minimum inhibitory concentration (MIC)
Description: as §1

[8] = tested on: Staphylococcus aureus 256E; experiment: as above; type: cell-based; conditions: resistant strain Staphylococcus aureus 256E, read-out: minimum inhibitory concentration (MIC)
Description: as §1

[9] = tested on: Streptococus faecium MD 8b; experiment: as above; type: cell-based; conditions: standard strain Streptococus faecium MD 8b, read-out: minimum inhibitory concentration (MIC)
Description: as §1

[10] = tested on: Pseudomonas aeruginosa 1771M; experiment: as above; type: cell-based; conditions: read-out: minimum inhibitory concentration (MIC)
Description: as §1

[11] = tested on: Streptococus pyogenes 308A; experiment: as above; type: cell-based; conditions: standard strain Streptococus pyogenes 308A, read-out: minimum inhibitory concentration (MIC)
Description: as §1

[12] = tested on: Staphylococcus aureus 179; experiment: as above; type: cell-based; conditions: resistant strain Staphylococcus aureus 179, read-out: minimum inhibitory concentration (MIC)
Description: as §1

[13] = tested on: Staphylococcus aureus 241; experiment: as above; type: cell-based; conditions: resistant strain Staphylococcus aureus 241, read-out: minimum inhibitory concentration (MIC)
Description: as §1

[14] = tested on: Staphylococcus aureus 293; experiment: as above; type: cell-based; conditions: resistant strain Staphylococcus aureus 293, read-out: minimum inhibitory concentration (MIC)
Description: as §1

[15] = tested on: Staphylococcus aureus 208E; experiment: as above; type: cell-based; conditions: resistant strain Staphylococcus aureus 208E, read-out: minimum inhibitory concentration (MIC)
Description: as §1

[16] = tested on: Staphylococcus aureus 285; experiment: as above; type: cell-based; conditions: standard strain Staphylococcus aureus 285, read-out: minimum inhibitory concentration (MIC)
Description: as §1

[17] = tested on: Staphylococcus aureus 303; experiment: as above; type: cell-based; conditions: resistant strain Staphylococcus aureus 303, read-out: minimum inhibitory concentration (MIC)
Description: as §1

[18] = tested on: Streptococus pyogenes 77A; experiment: as above; type: cell-based; conditions: standard strain Streptococus pyogenes 77A, read-out: minimum inhibitory concentration (MIC)
Description: as §1

[19] = tested on: Staphylococcus aureus 121E; experiment: as above; type: cell-based; conditions: resistant strain Staphylococcus aureus 121E, read-out: minimum inhibitory concentration (MIC)
Description: as §1

[20] = tested on: Staphylococcus aureus 693E; experiment: as above; type: cell-based; conditions: resistant strain Staphylococcus aureus 693E, read-out: minimum inhibitory concentration (MIC)
Description: as §1

[21] = tested on: Staphylococcus aureus and Staphylococcus epidermis, both resistant to quinolone antibacterial agents; experiment: Antibacterial activity in vitro, potency comparison; type: cell-based; conditions: for fold more potent antibacterial activity than its enantiomer / fold more potent antibacterial activity than its racemate: against resistant staphylcoccus aureus and staphylococcus epidermis (Table 2)
Description: as §1

[22] = tested on: Gram-positive bacteria; experiment: as above; type: cell-based; conditions: against Gram-positive bacteria
Description: as §1

[23] = tested on: Escherichia coli; experiment: as above; type: cell-based; conditions: against Escherichia coli, a representative Gram-negative strain
Description: as §1

[24] = tested on: Enterobacter cloacae P99; experiment: Antibacterial activity in vitro (MIC, agar dilution); type: cell-based; conditions: standard strain Enterobacter cloacae P99, read-out: minimum inhibitory concentration (MIC)
Excerpt: Corresponding enantiomers and racemates of the compounds of interest were also used as comparative ones. Bacteria were inoculated at an amount of about 10^7 cfu/ml onto each agar. […] Hoechst standard strains were used as the test bacteria.

[25] = in vivo
Description: After being starved for 16 hours, SD rats were orally administered at a dose of 40 mg/5 ml/kg with the compounds of interest and at a dose of 50 mg/5 ml/kg with the control. Immediately after being drawn at predetermined times from the eyeballs, blood was separated into plasma and other ingredients and quantitatively analyzed for pharmacokinetic parameters by use of high performance liquid chromatograph (HPLC).

[26] = tested on: Staphylococcus epidermidis 329; experiment: Antibacterial activity in vitro (MIC, agar dilution); type: cell-based; conditions: Staphylococcus epidermidis, 329, resistant strain Staphylococcus epidermidis 329, read-out: minimum inhibitory concentration (MIC)
Description: as §1

[27] = tested on: Staphylococcus epidermidis 319; experiment: as above; type: cell-based; conditions: Staphylococcus epidermidis, 319, resistant strain Staphylococcus epidermidis 319, read-out: minimum inhibitory concentration (MIC)
Description: as §1

[28] = Phototoxicity test; type: in vivo; conditions: CD-1 female mice, oral 50 mg/kg, after 48 hours of the UV exposure
Description: It is known that the presence of a halogen atom at the 8-position of the quinolone nuclei causes phototoxicity.
After 16 hours of starvation, CD-1 female mice were orally administered with a dose of 50 mg/kg of the compounds and allowed to be exposed for 4.5 hours to a UVA light source. The mice were located 15 cm away from the light source. Whether the mice were damaged in their ears was adopted as a main factor for the phototoxicity and determined after 24 hour and 48 hour UV exposure. The edema which the mice suffered were examined by measuring the thickness changes of their ears with the aid of electronic calipers and calculating average values. Also, an observation was made as to whether the mice suffered from erythema.

[29] = against resistant Staphylococcus aureus and Staphylococcus epidermis

Compound	MIC [1] [µg/mL]	MIC [2] [µg/mL]	MIC [3] [µg/mL]	MIC [4] [µg/mL]	MIC [5] [µg/mL]	MIC [6] [µg/mL]	MIC [7] [µg/mL]	MIC [8] [µg/mL]	MIC [9] [µg/mL]	MIC [10] [µg/mL]	MIC [11] [µg/mL]	MIC [12] [µg/mL]	MIC [13] [µg/mL]	MIC [14] [µg/mL]	MIC [15] [µg/mL]	MIC [16] [µg/mL]	MIC [17] [µg/mL]	MIC [18] [µg/mL]	MIC [19] [µg/mL]	MIC [20] [µg/mL]	further results
CO/N=C1\CN(c2nc3c(cc2F)c(=O)c(C(=O)O)cn3C2CC2)CC1(C)CN.Cl (single isomer, unassigned; (-)) [Example 9, (−)-7-(4-Aminomethyl-4-methyl-3-(Z)-methyloxyiminopyrrolidin-1-yl)-1-cyclopropyl-6-fluoro-4-oxo-1,4-dihydro[1,8]naphthyridine-3-carboxylic Acid Hydrochloride]	< 0.002	< 0.002	< 0.002	0.004	0.004	0.195	0.004	< 0.002	0.049	0.391	0.025	0.098	0.098	0.098	< 0.002	0.007	0.098	0.013	< 0.002	< 0.002	times as potent in antibacterial activity as ciprofloxacin [21, 29]: 128-390 times; times as potent in antibacterial activity as sparfloxacin [21, 29]: 24-64 times; fold more potent antibacterial activity than its enantiomer [21]: 8-32 fold; fold more potent antibacterial activity than its racemate [21]: 4 fold; fold higher antibacterial activity than ciprofloxacin [22]: 4-112 fold; fold higher antibacterial activity than sparfloxacin [22]: 4-30 fold; fold more potent antibacterial effect than ciprofloxacin [23]: almost the same antibacterial potency; fold more potent antibacterial effect than sparfloxacin [23]: almost the same antibacterial potency; MIC [24]: 0.025 µg/mL; Cmax ([25]; SD, rat, in vivo, po, 40 mg/kg): 9060 ± 2040 ng/mL; half-life ([25]; SD, rat, in vivo, po, 40 mg/kg): 4.5 h
O=C(O)c1cn(C2CC2)c2cc(N3CCNCC3)c(F)cc2c1=O [Ciprofloxacin, ciprofloxacin]	0.781 (≈ 2.36 µM)	0.391 (≈ 1.18 µM)	0.391 (≈ 1.18 µM)	0.391 (≈ 1.18 µM)	0.195 (≈ 0.589 µM)	0.098 (≈ 0.296 µM)	0.195 (≈ 0.589 µM)	0.781 (≈ 2.36 µM)	0.391 (≈ 1.18 µM)	0.098 (≈ 0.296 µM)	3.12 (≈ 9.43 µM)	12.5 (≈ 37.7 µM)	12.5 (≈ 37.7 µM)	12.5 (≈ 37.7 µM)	0.781 (≈ 2.36 µM)	0.781 (≈ 2.36 µM)	12.5 (≈ 37.7 µM)	0.391 (≈ 1.18 µM)	0.781 (≈ 2.36 µM)	0.391 (≈ 1.18 µM)	MIC [26]: 50 µg/mL (≈ 151 µM); MIC [27]: 100 µg/mL (≈ 302 µM); Area Under Curve ([25]; SD rats, oral, control at 50 mg/5 ml/kg): 12720 ng·h/mL
CO/N=C1\CN(c2cc3c(cc2F)c(=O)c(C(=O)O)cn3C2CC2)CC1(C)CN.Cl (single isomer, unassigned; (-)) [Example 19, (−)-7-(4-Aminomethyl-4-methyl-3-(Z)-methyloxyiminopyrrolidin-1-yl)-1-cyclopropyl-6-fluoro-4-oxo-1,4-dihydro-3-quinolinecarboxylic Acid Hydrochloride]	0.007	0.004	0.004	0.007	0.004	0.195	0.007	0.007	0.049	0.195	0.049	0.195	0.195	0.195	0.007	0.007	0.195	0.013	0.007	0.007	MIC [26]: 0.391 µg/mL; MIC [27]: 0.391 µg/mL; fold more potent antibacterial activity than its enantiomer [21]: 12-32 fold; fold more potent antibacterial activity than its racemate [21]: Two-fold higher potency; MIC [24]: 0.025 µg/mL
C[C@@H]1CN(c2c(F)c(N)c3c(=O)c(C(=O)O)cn(C4CC4)c3c2F)C[C@H](C)N1 [Sparfloxacin, sparfloxacin]	0.098 (≈ 0.25 µM)	0.049 (≈ 0.125 µM)	0.049 (≈ 0.125 µM)	0.049 (≈ 0.125 µM)	0.098 (≈ 0.25 µM)	0.025 (≈ 0.0637 µM)	0.195 (≈ 0.497 µM)	0.098 (≈ 0.25 µM)	0.391 (≈ 0.996 µM)	0.098 (≈ 0.25 µM)	0.391 (≈ 0.996 µM)	6.25 (≈ 15.9 µM)	6.25 (≈ 15.9 µM)	6.25 (≈ 15.9 µM)	0.098 (≈ 0.25 µM)	0.009 (≈ 0.0229 µM)	3.12 (≈ 7.96 µM)	0.391 (≈ 0.996 µM)	0.098 (≈ 0.25 µM)	0.049 (≈ 0.125 µM)	MIC [26]: 12.5 µg/mL (≈ 31.9 µM); MIC [27]: 12.5 µg/mL (≈ 31.9 µM); edema and erythema observed after UV exposure [28]: serious edema and erythema; increase in ear thickness compared with before the UV exposure [28]: 150%; MIC [24]: 0.007 µg/mL (≈ 0.0178 µM)
